Laboratory results: US12364709B2, “Bioavailable poly amines” (AMINEX THERAPEUTICS, INC., priority 2016, dated 2025)
Where “and” joins values, the source holds several entries; their conditions need not be identical. Identical values can stand only once.

Legend:
[1] = Pharmacokinetic analysis of AMXT 1501 salt forms, single oral tablet dose; format: in vivo, beagle dogs; conditions: for Cmax / Tmax / half-life / AUC(0-t): beagle, dog, plasma, po
Description: Following dose administration all the animals had serial blood collections. Table 18 provides pharmacokinetic data obtained using the various salt forms of AMXT 1501 following single PO dosing to dogs. In Table 18, Group 1 received the free base form of AMXT 1501, Group 2 received the dicholate salt of AMXT 1501, Group 3 received the phosphate salt form of AMXT 1501, and Group 4 received the dicaprate salt form of AMXT 1501. […] In Table 18, SD refers to standard deviation and CV % refers to coefficient of variability.

[2] = 5 day repeat oral dosing PK of AMXT 1501 dicaprate; format: in vivo, beagle dogs
Description: The pharmacokinetic (PK) profiles after dosing on Days 1 and 5 were evaluated using standard noncompartmental methods. The following experimental design was used. Beagle dogs, 1 or 2 males and 1 or 2 females for a total of 3 dogs per group, were randomly assigned to the four treatment groups as outlined in Table 19. AMXT 1501 dicaprate salt was administered in tablet form once daily for five days. […] Plasma samples were analyzed for AMXT 1501 concentration via a liquid chromatography/mass spectrometry (LC/MS-MS) procedure and the resulting concentration versus time data were used to estimate individual animal PK parameters using noncompartmental analysis (NCA).

[3] = single PO dose 16.0 mg/kg (2 x 80 mg tablets), plasma AMXT 1501, 16 mg/kg
[4] = single PO dose 16.0 mg/kg, plasma AMXT 1501, 16 mg/kg
[5] = single PO dose 16.0 mg/kg, t=24 hours, plasma AMXT 1501, 16 mg/kg
[6] = 8 mg/kg PO once daily, Day 5, individual animals
[7] = 8 mg/kg PO, Day 1, individual animals
[8] = 16 mg/kg PO once daily, Day 5, individual animals
[9] = 16 mg/kg PO, Day 1, individual animals
[10] = 32 mg/kg PO once daily, Day 5, individual animals
[11] = 32 mg/kg PO, Day 1, individual animals

## CCCCCCCCCCCCCCCC(=O)NCCCC[C@@H](N)C(=O)NCCCNCCCCNCCCN [AMXT 1501 dicaprate]
[1]; 16 mg/kg, single PO dose 16.0 mg/kg (2 x 80 mg tablets), plasma AMXT 1501, read-out: Cmax Mean
  Cmax: 276 ng/mL
[1]; 16 mg/kg, single PO dose 16.0 mg/kg (2 x 80 mg tablets), plasma AMXT 1501, read-out: Cmax Median
  Cmax: 278 ng/mL
[1]; 16 mg/kg, single PO dose 16.0 mg/kg (2 x 80 mg tablets), plasma AMXT 1501, read-out: Tmax Mean
  Tmax: 6 h
[1]; 16 mg/kg, single PO dose 16.0 mg/kg (2 x 80 mg tablets), plasma AMXT 1501, read-out: Tmax Median
  Tmax: 6 h
[1]; 16 mg/kg, single PO dose 16.0 mg/kg, plasma AMXT 1501, read-out: t1/2 Mean (converted)
  half-life: 14 h
[1]; 16 mg/kg, single PO dose 16.0 mg/kg, plasma AMXT 1501, read-out: t1/2 Median (converted)
  half-life: 13.4 h
[1]; 16 mg/kg, single PO dose 16.0 mg/kg, t=24 hours, plasma AMXT 1501, read-out: AUC0-t Mean
  AUC(0-t): 6580 ng·h/mL
[1]; 16 mg/kg, single PO dose 16.0 mg/kg, t=24 hours, plasma AMXT 1501, read-out: AUC0-t Median
  AUC(0-t): 6370 ng·h/mL
[1]; [3]
  Cmax Max.: 349 ng/mL
  Cmax Min.: 201 ng/mL
[1]; [4]
  t1/2 Max.: 16.2 h
  t1/2 Min.: 12.4 h
[1]; [5]
  AUC0-t Max.: 8640 ng·h/mL
  AUC0-t Min.: 4710 ng·h/mL
[1]; single oral delivery, FIGS. 5A-5D
  inter-animal consistency of plasma AMXT 1501 levels: much more consistent inter-animal blood levels
[2]; [6]
  AUC(0-t): 5620 ng·h/mL and 3100 ng·h/mL
  Cmax: 360 ng/mL and 254 ng/mL
  t1/2: 7.82 h
[2]; [7]
  AUC(0-t): 2050 ng·h/mL
  Cmax: 168 ng/mL
[2]; [8]
  AUC(0-t): 11000 ng·h/mL
  Cmax: 454 ng/mL and 714 ng/mL
  Tmax: 12.0 h
[2]; [9]
  AUC(0-t): 3190 ng·h/mL and 3300 ng·h/mL
  Cmax: 249 ng/mL
  t1/2: 36.2 h and 10.3 h
[2]; [10]
  AUC(0-t): 11000 ng·h/mL and 11100 ng·h/mL
  Cmax: 662 ng/mL and 708 ng/mL
[2]; [11]
  AUC(0-t): 5830 ng·h/mL and 4900 ng·h/mL
  Cmax: 446 ng/mL and 333 ng/mL
  t1/2: 27.1 h and 10.0 h
[2]; both sexes, beagle, dog, plasma, oral, Day 1, animals where it could be estimated, read-out: mean Day 1 t1/2 values, range across groups
  half-life: 7.99 to 23.2 h
[2]; both sexes, beagle, dog, plasma, oral, Day 5, animals where it could be estimated, read-out: mean Day 5 t1/2 values, range across groups
  half-life at 5 days: 8.69 to 20.8 h
[2]; both sexes, beagle, dog, plasma, po, 8 mg/kg, 8 mg/kg PO once daily, Day 5, group mean, read-out: AUC0-t Mean
  AUC(0-t): 4750 ng·h/mL
[2]; both sexes, beagle, dog, plasma, po, 8 mg/kg, 8 mg/kg PO once daily, Day 5, group mean, read-out: Cmax Mean
  Cmax: 340 ng/mL
[2]; both sexes, beagle, dog, plasma, po, 8 mg/kg, 8 mg/kg PO once daily, Day 5, group mean, read-out: Tmax Mean
  Tmax: 5.33 h
[2]; both sexes, beagle, dog, plasma, po, 8 mg/kg, 8 mg/kg PO once daily, Day 5, group mean, read-out: t1/2 Mean (converted)
  half-life: 8.69 h
[2]; both sexes, beagle, dog, plasma, po, 8 mg/kg, 8 mg/kg PO once daily, Day 5, individual animals, read-out: AUC0-t
  AUC(0-t): 5530 ng·h/mL
[2]; both sexes, beagle, dog, plasma, po, 8 mg/kg, 8 mg/kg PO once daily, Day 5, individual animals, read-out: Cmax
  Cmax: 405 ng/mL
[2]; both sexes, beagle, dog, plasma, po, 8 mg/kg, 8 mg/kg PO once daily, Day 5, individual animals, read-out: Tmax
  Tmax: 8 h
[2]; both sexes, beagle, dog, plasma, po, 8 mg/kg, 8 mg/kg PO once daily, Day 5, individual animals, read-out: t1/2 (converted)
  half-life: 9.55 h
[2]; both sexes, beagle, dog, plasma, po, 8 mg/kg, 8 mg/kg PO, Day 1, group mean, read-out: AUC0-t Mean
  AUC(0-t): 2030 ng·h/mL
[2]; both sexes, beagle, dog, plasma, po, 8 mg/kg, 8 mg/kg PO, Day 1, group mean, read-out: Cmax Mean
  Cmax: 154 ng/mL
[2]; both sexes, beagle, dog, plasma, po, 8 mg/kg, 8 mg/kg PO, Day 1, group mean, read-out: Tmax Mean
  Tmax: 6 h
[2]; both sexes, beagle, dog, plasma, po, 8 mg/kg, 8 mg/kg PO, Day 1, group mean, read-out: t1/2 Mean (converted)
  half-life: 9.3 h
[2]; both sexes, beagle, dog, plasma, po, 8 mg/kg, 8 mg/kg PO, Day 1, individual animals, read-out: AUC0-t
  AUC(0-t): 2010 ng·h/mL
[2]; both sexes, beagle, dog, plasma, po, 8 mg/kg, 8 mg/kg PO, Day 1, individual animals, read-out: Cmax
  Cmax: 139 ng/mL
[2]; both sexes, beagle, dog, plasma, po, 8 mg/kg, 8 mg/kg PO, Day 1, individual animals, read-out: Tmax
  Tmax: 8 h
[2]; both sexes, beagle, dog, plasma, po, 8 mg/kg, 8 mg/kg PO, Day 1, individual animals, read-out: t1/2 (converted)
  half-life: 9.3 h
[2]; both sexes, beagle, dog, plasma, po, 16 mg/kg, 16 mg/kg PO once daily, Day 5, group mean, read-out: AUC0-t Mean
  AUC(0-t): 8890 ng·h/mL
[2]; both sexes, beagle, dog, plasma, po, 16 mg/kg, 16 mg/kg PO once daily, Day 5, group mean, read-out: Cmax Mean
  Cmax: 564 ng/mL
[2]; both sexes, beagle, dog, plasma, po, 16 mg/kg, 16 mg/kg PO once daily, Day 5, group mean, read-out: Tmax Mean
  Tmax: 8 h
[2]; both sexes, beagle, dog, plasma, po, 16 mg/kg, 16 mg/kg PO once daily, Day 5, group mean, read-out: t1/2 Mean (converted)
  half-life: 11.7 h
[2]; both sexes, beagle, dog, plasma, po, 16 mg/kg, 16 mg/kg PO once daily, Day 5, individual animals, read-out: AUC0-t
  AUC(0-t): 9410 ng·h/mL
[2]; both sexes, beagle, dog, plasma, po, 16 mg/kg, 16 mg/kg PO once daily, Day 5, individual animals, read-out: Cmax
  Cmax: 523 ng/mL
[2]; both sexes, beagle, dog, plasma, po, 16 mg/kg, 16 mg/kg PO once daily, Day 5, individual animals, read-out: t1/2 (converted)
  half-life: 11.7 h
[2]; both sexes, beagle, dog, plasma, po, 16 mg/kg, 16 mg/kg PO, Day 1, group mean, read-out: AUC0-t Mean
  AUC(0-t): 3450 ng·h/mL
[2]; both sexes, beagle, dog, plasma, po, 16 mg/kg, 16 mg/kg PO, Day 1, group mean, read-out: Cmax Mean
  Cmax: 238 ng/mL
[2]; both sexes, beagle, dog, plasma, po, 16 mg/kg, 16 mg/kg PO, Day 1, group mean, read-out: Tmax Mean
  Tmax: 5.33 h
[2]; both sexes, beagle, dog, plasma, po, 16 mg/kg, 16 mg/kg PO, Day 1, group mean, read-out: t1/2 Mean (converted)
  half-life: 23.2 h
[2]; both sexes, beagle, dog, plasma, po, 16 mg/kg, 16 mg/kg PO, Day 1, individual animals, read-out: AUC0-t
  AUC(0-t): 3870 ng·h/mL
[2]; both sexes, beagle, dog, plasma, po, 16 mg/kg, 16 mg/kg PO, Day 1, individual animals, read-out: Cmax
  Cmax: 202 ng/mL
[2]; both sexes, beagle, dog, plasma, po, 16 mg/kg, 16 mg/kg PO, Day 1, individual animals, read-out: Tmax
  Tmax: 8 h
[2]; both sexes, beagle, dog, plasma, po, 32 mg/kg, 32 mg/kg PO once daily, Day 5, group mean, read-out: AUC0-t Mean
  AUC(0-t): 13000 ng·h/mL
[2]; both sexes, beagle, dog, plasma, po, 32 mg/kg, 32 mg/kg PO once daily, Day 5, group mean, read-out: Cmax Mean
  Cmax: 837 ng/mL
[2]; both sexes, beagle, dog, plasma, po, 32 mg/kg, 32 mg/kg PO once daily, Day 5, group mean, read-out: Tmax Mean
  Tmax: 6.67 h
[2]; both sexes, beagle, dog, plasma, po, 32 mg/kg, 32 mg/kg PO once daily, Day 5, group mean, read-out: t1/2 Mean (converted)
  half-life: 10.7 h
[2]; both sexes, beagle, dog, plasma, po, 32 mg/kg, 32 mg/kg PO once daily, Day 5, individual animals, read-out: AUC0-t
  AUC(0-t): 16800 ng·h/mL
[2]; both sexes, beagle, dog, plasma, po, 32 mg/kg, 32 mg/kg PO once daily, Day 5, individual animals, read-out: Cmax
  Cmax: 1140 ng/mL
[2]; both sexes, beagle, dog, plasma, po, 32 mg/kg, 32 mg/kg PO once daily, Day 5, individual animals, read-out: Tmax
  Tmax: 4 h
[2]; both sexes, beagle, dog, plasma, po, 32 mg/kg, 32 mg/kg PO once daily, Day 5, individual animals, read-out: t1/2 (converted)
  half-life: 10.7 h
[2]; both sexes, beagle, dog, plasma, po, 32 mg/kg, 32 mg/kg PO, Day 1, group mean, read-out: AUC0-t Mean
  AUC(0-t): 5660 ng·h/mL
[2]; both sexes, beagle, dog, plasma, po, 32 mg/kg, 32 mg/kg PO, Day 1, group mean, read-out: Cmax Mean
  Cmax: 447 ng/mL
[2]; both sexes, beagle, dog, plasma, po, 32 mg/kg, 32 mg/kg PO, Day 1, group mean, read-out: Tmax Mean
  Tmax: 5.33 h
[2]; both sexes, beagle, dog, plasma, po, 32 mg/kg, 32 mg/kg PO, Day 1, group mean, read-out: t1/2 Mean (converted)
  half-life: 18.6 h
[2]; both sexes, beagle, dog, plasma, po, 32 mg/kg, 32 mg/kg PO, Day 1, individual animals, read-out: AUC0-t
  AUC(0-t): 6250 ng·h/mL
[2]; both sexes, beagle, dog, plasma, po, 32 mg/kg, 32 mg/kg PO, Day 1, individual animals, read-out: Cmax
  Cmax: 563 ng/mL
[2]; both sexes, beagle, dog, plasma, po, 32 mg/kg, 32 mg/kg PO, Day 1, individual animals, read-out: Tmax
  Tmax: 8 h
[2]; both sexes, beagle, dog, plasma, po, 32 mg/kg, single or repeat once daily PO 8, 16, or 32 mg/kg, postdose, read-out: Tmax observed
  Tmax: 4 to 12 h
